Measured values reported in ChEMBL document CHEMBL1201862, “PubChem BioAssay data set” (2004).
Activity calls are given as the source filed them.

What was measured:
Leucine aminopeptidase = target: T1, Leucine aminopeptidase (Plasmodium falciparum 3D7, UniProt Q8IL11); assay: P. falciparum M17LAP inhibitors, primary screen, biochemical, fluorogenic H-Leu-NHMec substrate, 1536-well (AID 1619); format: functional
T1 sequence (Q8IL11 whole entry): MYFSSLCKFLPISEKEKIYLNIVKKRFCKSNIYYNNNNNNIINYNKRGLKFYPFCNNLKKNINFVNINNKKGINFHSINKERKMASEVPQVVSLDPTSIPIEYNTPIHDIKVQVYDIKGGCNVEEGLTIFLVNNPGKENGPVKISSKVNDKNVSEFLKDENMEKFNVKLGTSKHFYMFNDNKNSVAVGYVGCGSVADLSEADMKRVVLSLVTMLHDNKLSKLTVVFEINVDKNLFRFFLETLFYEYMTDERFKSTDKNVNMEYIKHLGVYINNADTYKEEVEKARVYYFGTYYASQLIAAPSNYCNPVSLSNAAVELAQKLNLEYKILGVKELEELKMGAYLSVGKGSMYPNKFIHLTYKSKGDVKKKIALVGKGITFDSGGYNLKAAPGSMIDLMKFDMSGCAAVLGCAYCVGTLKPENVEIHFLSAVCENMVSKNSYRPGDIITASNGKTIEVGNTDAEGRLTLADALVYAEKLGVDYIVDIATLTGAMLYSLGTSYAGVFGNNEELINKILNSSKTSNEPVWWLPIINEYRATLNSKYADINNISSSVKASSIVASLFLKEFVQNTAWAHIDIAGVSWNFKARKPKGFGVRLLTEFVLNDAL

[1] = toxicity to human hepatoma HepG2 cells – cell-based, cherry-picked samples, cytotoxicity control, dose response (AID 1159577); format: functional
[2] = P. falciparum Dd2 growth inhibitors, dose response, SYBR Green, cherry-picked samples (AID 1159567); format: functional, cell-based
[3] = target: T2, Corticotropin-releasing factor receptor 2/Corticotropin-releasing factor-binding protein (Homo sapiens, UniProt P24387+Q13324); assay: Dose Response confirmation of uHTS hits for small molecule antagonists of the CRF-binding protein and CRF-R2 receptor complex.; format: functional; conditions: read-out: IC50_Mean
T2 sequence (Q13324 whole entry): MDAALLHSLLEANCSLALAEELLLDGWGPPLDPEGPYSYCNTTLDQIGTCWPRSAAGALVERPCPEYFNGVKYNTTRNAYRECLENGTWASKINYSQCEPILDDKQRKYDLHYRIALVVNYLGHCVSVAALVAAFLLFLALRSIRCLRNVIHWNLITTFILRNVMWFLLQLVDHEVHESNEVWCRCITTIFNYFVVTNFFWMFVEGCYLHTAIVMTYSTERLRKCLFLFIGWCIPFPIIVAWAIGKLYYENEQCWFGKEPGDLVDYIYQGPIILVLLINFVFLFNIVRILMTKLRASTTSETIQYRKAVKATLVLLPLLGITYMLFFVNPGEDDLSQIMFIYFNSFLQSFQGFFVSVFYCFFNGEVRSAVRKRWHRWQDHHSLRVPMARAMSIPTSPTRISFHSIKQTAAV
T2 sequence (P24387 whole entry): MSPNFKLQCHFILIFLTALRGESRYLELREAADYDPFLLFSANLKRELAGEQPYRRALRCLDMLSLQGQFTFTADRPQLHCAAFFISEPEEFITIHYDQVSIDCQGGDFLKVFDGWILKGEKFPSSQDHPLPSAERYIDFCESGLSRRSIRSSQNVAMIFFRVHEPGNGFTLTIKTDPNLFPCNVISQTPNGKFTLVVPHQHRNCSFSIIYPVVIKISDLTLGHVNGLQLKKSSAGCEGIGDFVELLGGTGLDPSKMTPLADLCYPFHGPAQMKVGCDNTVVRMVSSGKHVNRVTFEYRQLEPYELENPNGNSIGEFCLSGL

[4] = blockers of CRF-binding protein–CRF-R2 complex – cell-based, uHTS hits, 384-well, dose response (AID 651639); format: functional, Homo sapiens; conditions: read-out: IC50_Mean
[5] = target: T2, Corticotropin-releasing factor receptor 2/Corticotropin-releasing factor-binding protein; assay: activators of CRF receptor 2 with binding protein – uHTS hits, confirmation (AID 602473); format: functional; conditions: read-out: EC50_Mean
Aminopeptidase N = target: T3, Aminopeptidase N (Plasmodium falciparum FcB1/Columbia, UniProt O96935); assay: malaria alanyl aminopeptidase activity blockers – biochemical, fluorogenic H-Leu-NHMec substrate, 1536-well (AID 1445); set-up: species or system Plasmodium falciparum 3D7, 3D7
T3 sequence (O96935 whole entry): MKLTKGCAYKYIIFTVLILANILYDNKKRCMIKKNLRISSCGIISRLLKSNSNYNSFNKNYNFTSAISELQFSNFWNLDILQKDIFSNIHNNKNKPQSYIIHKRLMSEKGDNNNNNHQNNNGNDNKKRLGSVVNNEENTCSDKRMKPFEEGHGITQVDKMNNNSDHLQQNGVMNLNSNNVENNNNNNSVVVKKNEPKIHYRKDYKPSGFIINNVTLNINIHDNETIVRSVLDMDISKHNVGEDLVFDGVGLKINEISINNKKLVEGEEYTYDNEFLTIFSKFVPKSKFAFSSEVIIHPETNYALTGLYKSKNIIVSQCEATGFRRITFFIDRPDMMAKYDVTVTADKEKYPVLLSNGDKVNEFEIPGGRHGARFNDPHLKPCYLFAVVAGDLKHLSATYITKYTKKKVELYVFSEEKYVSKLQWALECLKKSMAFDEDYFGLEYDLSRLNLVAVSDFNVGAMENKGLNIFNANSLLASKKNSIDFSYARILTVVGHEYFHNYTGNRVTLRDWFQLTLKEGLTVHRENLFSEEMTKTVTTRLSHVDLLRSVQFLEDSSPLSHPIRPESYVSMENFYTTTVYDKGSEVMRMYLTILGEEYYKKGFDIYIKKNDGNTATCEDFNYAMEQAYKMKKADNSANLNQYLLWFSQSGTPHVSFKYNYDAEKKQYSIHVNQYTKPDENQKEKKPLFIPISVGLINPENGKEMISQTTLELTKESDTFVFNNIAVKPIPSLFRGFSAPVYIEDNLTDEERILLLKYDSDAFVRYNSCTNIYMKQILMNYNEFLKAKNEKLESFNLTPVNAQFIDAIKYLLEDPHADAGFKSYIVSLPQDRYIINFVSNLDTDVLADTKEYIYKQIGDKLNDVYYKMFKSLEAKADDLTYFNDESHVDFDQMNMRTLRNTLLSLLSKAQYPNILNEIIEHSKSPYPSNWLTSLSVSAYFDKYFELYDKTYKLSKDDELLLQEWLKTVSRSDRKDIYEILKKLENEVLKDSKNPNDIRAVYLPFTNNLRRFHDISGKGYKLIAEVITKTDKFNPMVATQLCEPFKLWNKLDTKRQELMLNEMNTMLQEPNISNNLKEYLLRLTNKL

[6] = growth inhibition of PfATP4-mutant resistant parasites – NITD609-resistant line, SYBR Green, dry powder, dose response (AID 1159571); format: functional, cell-based;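 note: parasites synchronized at ring stage by sorbitol before testing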
[7] = Dd2 malaria parasite growth inhibition potency – SYBR Green, dry powder samples, dose response (AID 1159566); format: functional, cell-based;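 note: potency for growth inhibition with lower SYBR green DNA signal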
[8] = growth inhibition of yeast DHODH-expressing 3D7 parasites – SYBR Green, dry powder samples, dose response (AID 1159570); format: functional, cell-based;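 note: parasite growth measured after 72 hours of compound exposure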
[9] = target: T4, Rac GTPase-activating protein 1 (Homo sapiens, UniProt Q9H0H5); assay: blockers of MgcRacGAP-driven Rac1 GTP hydrolysis – biochemical, ADP Hunter fluorescence, primary and confirmatory, confirmation (AID 624330); format: functional
T4 sequence (Q9H0H5 whole entry): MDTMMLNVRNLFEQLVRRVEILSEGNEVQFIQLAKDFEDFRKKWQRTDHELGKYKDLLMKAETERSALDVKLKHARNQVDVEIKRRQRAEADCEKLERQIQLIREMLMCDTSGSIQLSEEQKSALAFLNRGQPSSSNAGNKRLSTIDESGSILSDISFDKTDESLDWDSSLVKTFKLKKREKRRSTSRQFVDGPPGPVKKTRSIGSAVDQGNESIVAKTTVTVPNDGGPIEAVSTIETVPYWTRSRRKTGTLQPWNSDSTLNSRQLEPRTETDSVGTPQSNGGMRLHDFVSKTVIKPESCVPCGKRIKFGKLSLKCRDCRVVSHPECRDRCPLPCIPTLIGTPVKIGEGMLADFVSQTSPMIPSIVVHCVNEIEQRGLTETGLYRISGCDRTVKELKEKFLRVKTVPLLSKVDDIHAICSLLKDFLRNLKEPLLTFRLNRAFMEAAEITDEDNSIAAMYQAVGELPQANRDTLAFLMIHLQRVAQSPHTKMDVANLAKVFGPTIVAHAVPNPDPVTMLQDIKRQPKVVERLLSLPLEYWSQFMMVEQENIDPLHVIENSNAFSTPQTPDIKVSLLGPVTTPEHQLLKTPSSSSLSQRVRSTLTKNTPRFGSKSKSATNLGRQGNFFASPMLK

[10] = viability loss in HeLa cells – cytotoxicity control for MgcRacGAP inhibitor project, dose response (AID 624300); format: functional
Vero = assay: cells; format: functional, cell-based; conditions: Chlorocebus sabaeus
Protein skinhead-1 = target: T5, Protein skinhead-1 (Caenorhabditis elegans, UniProt P34707); format: functional
T5 sequence (P34707 whole entry): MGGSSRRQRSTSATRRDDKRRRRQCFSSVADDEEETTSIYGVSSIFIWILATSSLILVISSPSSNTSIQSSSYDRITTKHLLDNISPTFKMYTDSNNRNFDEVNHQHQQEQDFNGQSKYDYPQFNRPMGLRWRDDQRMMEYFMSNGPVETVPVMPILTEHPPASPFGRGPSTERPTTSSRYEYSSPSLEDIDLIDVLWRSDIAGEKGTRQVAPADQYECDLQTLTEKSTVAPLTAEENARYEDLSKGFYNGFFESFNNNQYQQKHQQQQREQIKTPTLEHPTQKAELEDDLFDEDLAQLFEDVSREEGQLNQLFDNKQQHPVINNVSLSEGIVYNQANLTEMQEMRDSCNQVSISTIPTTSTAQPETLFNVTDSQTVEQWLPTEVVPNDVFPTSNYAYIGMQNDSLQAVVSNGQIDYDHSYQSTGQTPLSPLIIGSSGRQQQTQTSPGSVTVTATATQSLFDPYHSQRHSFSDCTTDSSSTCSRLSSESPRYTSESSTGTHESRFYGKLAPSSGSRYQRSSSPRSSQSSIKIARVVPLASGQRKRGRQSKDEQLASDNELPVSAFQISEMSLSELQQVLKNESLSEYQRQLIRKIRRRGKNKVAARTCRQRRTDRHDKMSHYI

H9c2 = assay: cells; format: functional, cell-based; conditions: Rattus norvegicus, H9c2, Myocardium;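 note: confirmatory concentration-response retest of ultra-high-throughput screening hits for modulation of myocardial damage; cell death induced by hydrogen peroxide oxidative stress; compound pretreatment for 60 min then peroxide exposure for 2 h; potency is for protecting the cells against peroxide damage rather than for killing them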
[11] = target: FAD-linked sulfhydryl oxidase ALR (Homo sapiens, UniProt P55789); assay: ALR-catalysed DTT oxidation blockers – biochemical, H2O2 detection, luminescence, cherry-pick, dose response (AID 493248)
Chain of FAD-linked sulfhydryl oxidase ALR (P55789 whole entry): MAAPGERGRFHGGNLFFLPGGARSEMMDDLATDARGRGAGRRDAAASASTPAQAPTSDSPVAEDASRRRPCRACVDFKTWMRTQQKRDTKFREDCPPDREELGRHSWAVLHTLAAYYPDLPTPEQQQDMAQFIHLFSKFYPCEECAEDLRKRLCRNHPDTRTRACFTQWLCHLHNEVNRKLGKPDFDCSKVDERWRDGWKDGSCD

O=C(NCc1cccs1)N[C@@H](Cc1ccccc1)C(=O)O
IC50 (Leucine aminopeptidase): 57.6 µM (active)

C[C@@H]1CN([C@@H](C)CO)C(=O)Cc2cc(NC(=O)Nc3ccccc3)ccc2O[C@H]1CN(C)Cc1ccc2c(c1)OCO2
AC50 [1]: > 39 µM (inactive)
AC50 [2]: 3.97 µM (active)

Cc1ccc(-c2csc(Nc3ccc(C(=O)O)cc3)[n+]2Cc2ccccc2)cc1
IC50 [3]: 13 µM (active)
IC50 [4]: 16.5 µM (active)
EC50 [5]: > 53 µM (inactive)

N#C/C(=N\Nc1ccccc1Cl)C(=O)c1ccccc1
IC50 [3]: 10.2 µM (active)
IC50 [4]: > 20 µM (inactive)
EC50 [5]: > 53 µM (inactive)

COc1cc(OC)c(NC(=O)c2ccc3c(SCC(=O)O)c4c(nc3c2)CCCC4)cc1Cl
IC50 (Aminopeptidase N): 31.6 µM (active)

OC[C@@H]1Nc2ccc(C#Cc3ccccc3)cc2[C@@H]2[C@H]1CCN2Cc1nccs1
AC50 [6]: 3.32 µM (active)
AC50 [1]: > 39 µM (inactive)
AC50 [7]: 3.5 µM (active)
AC50 [2]: 2.95 µM (active)
AC50 [8]: 3.71 µM (active)

CCOc1cc(/C=N/NC(=O)c2cccs2)cc([N+](=O)[O-])c1O
IC50 (Aminopeptidase N): 103 µM (active)

COc1ccc(NC(=O)Nc2cccc3c2O[C@H](CN(C)Cc2ccc(-c4ccccc4)cc2)[C@@H](C)CN([C@@H](C)CO)C3=O)cc1
AC50 [1]: 16.2 µM (active)
AC50 [2]: 3.25 µM (active)

CSc1nc2nc(-c3ccccc3)cc(O)n2n1
IC50 (Leucine aminopeptidase): 28.6 µM (active)

COc1ccc(/C=N/NC(=S)Nc2cccc(C(=O)O)c2)cc1
IC50 (Leucine aminopeptidase): 19.6 µM (active)

COc1cccc2c1C(=O)c1c(O)c3c(c(O)c1C2=O)C[C@@](O)(C(=O)CO)C[C@@H]3OC1CC(N)C(O)C(C)O1 (stereo partly specified)
IC50 [9]: 53.5 µM (active)
CC50 [10]: 23.5 µM (active)
IC50 (Vero): > 25 µM (active)

NC(=O)c1ccc(NCc2ccco2)c([N+](=O)[O-])c1
IC50 [3]: 5.79 µM (active)
IC50 [4]: 3.57 µM (active)
EC50 [5]: > 53 µM (inactive)

O=c1oc2ccc3ccccc3c2cc1-c1nnc(-c2ccccc2)o1
IC50 [3]: < 0.368 µM (active)
IC50 [4]: 0.39 µM (active)
IC50 (Protein skinhead-1): > 100 µM (inactive)
IC50 (H9c2): > 79 µM (inactive)
EC50 [5]: > 53 µM (inactive)

COc1ccc(C#Cc2ccc3c(c2)O[C@@H](CN(C)S(=O)(=O)c2ccccc2F)[C@@H](C)CN([C@H](C)CO)S3(=O)=O)cc1
AC50 [6]: 1.16 µM (active)
AC50 [7]: 1.07 µM (active)
AC50 [2]: 1.23 µM (active)
AC50 [8]: 1.43 µM (active)

COc1ccc(S(=O)(=O)N2CC[C@@H]3[C@H]2c2cc(C#Cc4ccccc4OC)ccc2N[C@@H]3CO)cc1
AC50 [1]: > 39 µM (inactive)
AC50 [2]: 11.3 µM (active)

OC[C@H]1[C@@H](c2ccc(/C=C/c3ccccc3)cc2)[C@@H]2CN(Cc3cncnc3)CCCCN12
AC50 [1]: 20.3 µM (active)
AC50 [2]: 4.13 µM (active)

Nc1n[nH]c(N)c1N=Nc1ccccc1
AC50 [11]: 6.02 µM (active)
IC50 (Leucine aminopeptidase): 7.03 µM (active)
